These results are taken from the SangsterLogP compilation.

By logD is commonly meant lipophilicity at a set pH, counting ionised and neutral species. The low end stands for a more hydrophilic compound, the high end for a more lipophilic compound.

The structures appear in SMILES notation.

A short description of data set [1]: method code G-HPLC, from DOI: 10.1016/s0021-9673(01)94303-1.
A short description of data set [2]: method code SF-CR+AS, from Korenman, I.; Lineva, S.; Gezikova, N. (1978). Extraction of naphthol-sulfonic acids from aqueous solution. Zh. Prikl. Khim., 51(4)869-871.
The nature of data set [3]: method code SF-RC, from DOI: 10.1016/j.nucmedbio.2007.06.005, PMID: 17707813. The settings on record: pH 7.4.
Data set [4] in a line: method code SF-GLC, from DOI: 10.1007/bf00212402, PMID: 7663085.
The nature of data set [5]: method code SF-AS, from DOI: 10.1016/s0378-5173(98)00405-0, PMID: 10089287. To be noted: pH 7.4.
The nature of data set [6]: method code SF-AS, from DOI: 10.1016/0005-2744(69)90103-x, PMID: 4387594.
Data set [7] is described as follows: method code SF-AS, from DOI: 10.1021/jm00128a017, PMID: 2754702. The settings on record: pH 7.4.
A short description of data set [8]: method code SF-HPLC, from DOI: 10.1016/0378-5173(88)90220-7. The settings on record: pH 7.4.
Data set [9] is described as follows: method code SF-HPLC, from DOI: 10.1021/jm00109a018, PMID: 2033591. The settings on record: pH 7.0.
A short description of data set [10]: method code SF-AS, from DOI: 10.1021/jm010817i, PMID: 11806714. The settings on record: pH 7.4.
Data set [11] in a line: method code SF-HPLC, from Blakemore, C.; Brown, H.; Durant, J.; Emmett, C.; Ganellin, R.; Parsons, E.; Rasmussen, C. (1980). SK&F 92994: a new histamine H2-receptor antagonist. COMMUNICATIONS: Part II. Br. J. Pharmacol., ….
The nature of data set [12]: method code SF-AS, from Korenman, Y.; Pazynin, T. (1972). Distribution of nitrosonaphthols between organic solvents and water. J. anal. chem. USSR, 27(4)723-725. The settings on record: pH 2.0.
Data set [13] in a line: method code SF, from DOI: 10.1016/0006-291x(88)90214-8. The settings on record: pH 7.4.
Data set [14] is described as follows: method code SF-AS, from DOI: 10.1016/s0021-9673(01)87148-x, PMID: 1744207. The settings on record: pH 3.4.
Assay in data set [15]: not given
The source holds these as a separate data set.

The nature of data set [16]: method code SF-HPLC, from DOI: 10.1002/hlca.19880710534. The settings on record: pH 7.4.
For data set [17] the following is noted: pH 9.2.
Data set [18] can be described thus: method code SF-CR, from DOI: 10.1042/bj1780443, PMID: 109087. To be noted: pH 7.4.
Assay in data set [19]: not given
This is another data set of the same source.

Data set [20] in a line: method code SF-AS, from DOI: 10.1139/y89-042, PMID: 2547502. To be noted: pH 7.4.
Assay in data set [21]: not given
The source holds these as a separate data set.

Data set [22] in a line: method code SF-AS, from PMID: 6692390. To be noted: pH 4.0.
Data set [23] in a line: method code SF-AS, from Dai, Y.; Jiang, J.; Wang, Z.; Xue, Q. (2007). Experimental and QPSR studies on octanol-water partition coefficient of substituted anilines. J. Struct. Chem, 26(12)1449-1454.
Data set [24] is described as follows: method code SF-AS, from DOI: 10.1021/jm00047a013, PMID: 7932583.
Data set [25] can be described thus: method code SF-AS, from DOI: 10.2116/analsci.13.897. To be noted: pH 2.0.
Data set [26] is described as follows: method code SF-RC, from Audran, M.; Chanal, J.; Marignan, R.; Cousse, H. (1984). Correlations between structure and pharmacokinetic parameters in a series of cresotinamides. International Journal of Pharmaceutics, …. The settings on record: pH 1.0.
The nature of data set [27]: method code SF-AS, from DOI: 10.5012/bkcs.2007.28.7.1183.
The nature of data set [28]: method code SF-AS, from DOI: 10.1016/j.jct.2016.12.034. The settings on record: pH 7.4.
Data set [29] is described as follows: method code SF-CR+AS, from Korenman, I.; Tishchenko, M.; Kombarova, A. (1977). Distribution of dihydroxynaphthalenes between higher alcohols and water. Zh. Prikl. Khim., 50(4)899-901. The settings on record: pH 2.0.
Assay in data set [30]: not given
The source holds these as a separate data set.

Data set [31] can be described thus: method code SF, from DOI: 10.1016/s0021-9673(01)84246-1.
Data set [32] in a line: method code SF-AS, from DOI: 10.1016/s0045-6535(00)00181-8, PMID: 11272912.
A short description of data set [33]: method code SF-RC, from DOI: 10.1016/j.nucmedbio.2011.07.009, PMID: 21958846. To be noted: pH 7.4.
The nature of data set [34]: method code SF-GLC, from DOI: 10.1021/je970069v.
The nature of data set [35]: method code SF-AS, from DOI: 10.1016/0045-6535(95)00267-c.
The nature of data set [36]: method code SF-AS, from DOI: 10.1111/j.2042-7158.1980.tb13082.x, PMID: 6110743.
Data set [37] in a line: method code SF, from Zhuang, J.; Mo, H.; An, F.; Yang, K. (1993). Determination of the water solubility and n-octanol/water partition coefficient of pesticide N-(2,4-dimethylphenyl)-N'-methylamidine. Huanjing Huaxue, ….
Data set [38] in a line: method code SF-AS, from DOI: 10.1002/jps.2600650731. To be noted: pH 11.5.
Assay in data set [39]: not given
The source holds these as a separate data set.

Data set [40] can be described thus: method code SF-RC, from DOI: 10.1021/jm070791g.s001, PMID: 17960926.
Assay in data set [41]: not given
The source holds these as a separate data set.

Assay in data set [42]: not given
The source holds these as a separate data set.

The nature of data set [43]: method code SF-AS, from DOI: 10.2307/3575639, PMID: 7313077. To be noted: pH 7.4.

`CCCCc1ccccc1`: the logP in data set [1] turned out to be 4.29. The compound `O=S(=O)(O)c1ccc(O)c2ccccc12` came in with a logP in data set [2] of -0.44.

In turn, `Nc1nc(F)c2ncn(CCC(CO)CO)c2n1` yielded a logD in data set [3] of -0.52. For the compound `ClC1=C(Cl)[C@]2(Cl)C3C(Cl)C(Cl)C(Cl)C3[C@@]1(Cl)C2(Cl)Cl` (some centres undefined), the logP in [4] was 6.22.

As for `Cc1ccc(C(C)C)cc1`, the logP was found to be 4.14. In data set [5], `Cc1nc2ccccn2c(=O)c1C` registered a logD of 1.14. For `CCCCNc1ccccc1`, the logP in data set [6] stood at 3.58. `Nc1nc(N)c2ncn([C@H]3C=C[C@@H](CO)O3)c2n1` returned a logD in data set [7] of -0.48.

Take `CC(=O)N(C)S(=O)(=O)c1ccc(C)cc1`: in [8], the logD worked out at 1.73.

In the case of `N=c1c2ncn([C@@H]3O[C@H](CO)C[C@@H]3F)c2ncn1O`, in [9], the logD is -1.38. In data set [10], `CC(=O)NCc1c(O)c(=O)cc(C)n1C` came in with a logD of -0.82.

For the compound `COC(=O)c1ccc(CN(C)N=O)cc1`, the logP in data set [11] was determined as 1.21. Compound `O=Nc1ccc2ccccc2c1O` displayed a logD in data set [12] of 2.57.

Turning to `Cc1cn([C@H]2CC[C@@H](CO)O2)c(=O)[nH]c1=O`, in data set [13], the log distribution coefficient (logD) is -0.7.

In turn, `C/C(=C\c1ccccc1)C(=O)O` had a logD in data set [14] of 2.58. For `Cc1cnc2n(c1=O)CCCC2C` (centres undefined), the logP in data set [15] was 0.69.

With `C=CCC1(CC(C)O)C(=O)NC(=O)NC1=O` (centres undefined), the pH-dependent lipophilicity (logD) in [16] was -0.01. As for `CN(C)CNC(=O)c1ccccc1`, the logD in data set [17] was 0.85. Consider `Cc1cc(=O)oc2cc(O)ccc12`, for which the logD in data set [18] turned out to be 1.9.

Regarding `NC(=O)c1cn(Cc2c(F)cccc2F)nn1`, the logP in [19] was found to be 0.88. In turn, `Nc1ncnc2c1ncn2[C@@H]1O[C@@H]2COP(=O)(O)O[C@H]2[C@H]1O` had a logD in data set [20] of -2.96. Take `CC(C)N1C(=O)c2ccccc2NS1(=O)=O`: the logP in data set [21] was found to be 1.95. In data set [22], `CC(=O)c1ccc(NC(=O)N(C)N=O)cc1` returned a logD of 0.26. For the compound `CCN(CC)c1ccccc1`, in data set [23], the logP was 3.11. Regarding `Cc1cn([C@H]2C[C@H](F)[C@@H](CO)O2)c(=O)[nH]c1=O`, the logP in data set [24] was -0.3. In data set [25], `CCC(C(=O)O)c1ccccc1` (centres undefined) showed a logD of 2.47. As for `CCNC(=O)c1cc(Cl)cc(C)c1O`, the logD in data set [26] was determined as 3.55.

In turn, `Nc1ccc(S(=O)(=O)Nc2cnc(Cl)cn2)cc1` yielded a logP in data set [27] of 0.25. As for `CC(=O)Nc1ccc(C=NNC(N)=S)cc1`, the logD in data set [28] came out at 1.7.

Take `Oc1ccc2cccc(O)c2c1`: the logD in data set [29] worked out at 1.94.

For the compound `CNC(=O)Oc1cc(C)c(C)cc1Cl`, in [30], the logP is 2.3. Consider `Nc1nc2c(ncn2[C@@H]2O[C@H](CO)[C@@H](O)[C@H]2O)c(=O)[nH]1`, for which the logP in [31] is -1.85.

`COc1cc(C=O)c(OC)c(OC)c1` displayed a logP in [32] of 1.91.

Compound `Cc1c(CC(CO)CF)n(C)c(=O)[nH]c1=O` (centres undefined) registered a logD in data set [33] of -0.56.

Compound `Cc1ccc(C(C)C)c(Cl)c1Cl` displayed a logP in data set [34] of 5.5. The compound `CC(C)(C#N)Nc1nc(Cl)nc(NC2CC2)n1` came in with a logP in data set [35] of 1.99. Turning to `CCCCOc1cccc(O)c1`, the logP in data set [36] came out at 3.03.

Consider `CNC=Nc1ccc(C)cc1C`, for which, in data set [37], the logP came to 2.92. As for `CC/N=C(N)/N=C(\N)Nc1ccc(Cl)cc1`, in data set [38], the logD worked out at 2.14. `CC(C)c1ccc(CO)cc1` had a logP in data set [39] of 2.49. Take `O=c1[nH]c(=O)n([C@H]2C=C[C@@H](CO)C2)cc1I`: the logP in data set [40] turned out to be 0.29. In turn, `O=C(O)/C=C/C(=O)c1ccccc1` had a logP in [41] of 1.53. In turn, `Clc1cc(Cl)cc(C2(CC(Cl)(Cl)Cl)CO2)c1` (centres undefined) returned a logP in data set [42] of 4.34. Compound `CNC(=O)c1cc(N2CC2)c([N+](=O)[O-])cc1[N+](=O)[O-]` gave a logD in data set [43] of 0.44.
